# Results taken from patent US3959272A, “Aminoalkyl esters of 2-anilino-nicotinic acids” (Societe Anonyme dite: Hexachime, priority 1972, dated 1976).
# Tests used:
# [1] = Anti-inflammatory activity: oedema provoked by carragenin in the rat; format: in vivo; settings: po, read-out: percentage inhibition of oedema
# Protocol: The method used was as follows.
# The anti-inflammatory activity was measured on oedema provoked by carragenin in the rat. Groups of six male rats each weighing 120 to 130 g received the compound under test orally in suspension in "tween 80", half the dose being given 2 hours before and the other half 1/2 hour before the subcutaneous plantar injection of 0.05 ml of a 1 % carragenin solution. The volume of the injected paw was measured by plethysmography at regular intervals. Table 1 below gives the percentage inhibition of the oedema with reference to untreated controls.
# [2] = Analgesic activity: Siegmund's test (phenylbenzoquinone painful reactions); format: in vivo; settings: Mus musculus, po, read-out: percentage inhibition of reactions
# Protocol: This activity was measured by Siegmund's test in mice and Randall and Selitto's test in the rat.
# Groups of six mice received the compound under test orally 1 hour before intraperitoneal injection of 0.2 ml of an 0.02% of solution of phenylbenzoquinone. The number of painful reactiors from the fifth to the tenth minute after the injection of phenylbenzoquinone was counted.
# Laparotomy test = format: in vivo, rat; settings: as the hydrochloride; for ED50: Rattus norvegicus, ip, intraperitoneal
# Protocol: Rats weighing 110 to 130 g each received the product of Example 1 (as the hydrochloride) by intraperitoneal injection. 10 or 30 Minutes after the treatment, the animals are examined to see:
# 1. If they allow themselves to remain lying on their backs;
# 3. if they tolerate an incision into the skin; and
# 4. if they tolerate an incision into the muscle. If an animal submits without reaction it is counted as zero, and if it reacts it is counted as one. The total score is calculated for each dosage. The following table gives the percentage protection and the number of sleeping rats.
# [3] = Stimulation of dental pulp in the rabbit; format: in vivo
# Protocol: 24 Hours before the test, each incisor of the rabbit is drilled 1 mm below the gum to a depth of about 1 mm. The next day, the animals are placed in restraining boxes and stimulating electrodes are placed in position. The threshold of reaction to the electrical stimulation (at 30 Hz; 10 ms; for 1 s) is measured by the munching reaction of the rabbits. The product of Example 1 was administered intravenously and its effect on the pain threshold was measured at regular intervals after treatment.
# [4] = Potentiation of stereotypes by amphetamine; format: in vivo, rat; settings: 5 mg/kg dexamphetamine sulphate
# Protocol: The compound under test was administered to groups of 5 rats intraperitoneally. Thirty minutes afterwards, 5 mg/kg of dexamphetamine sulphate was injected intraperitoneally. The duration of the phenomenon is counted at regular intervals from 0 to 4 and the counts are added up.
# [5] = Action on isoprenaline in dogs; format: in vivo, dog; settings: only if atropinised and bivagotomised
# [6] = Acute toxicity in the rat; settings: in vivo
# [7] = dog, in vivo
# Protocol: The product of Example 1 was perfused in the dog at a dosage of 50 mg/minute by the saphena vein. Cardiac arrest was produced by a dose of 344 mg/kg.
# [8] = Post-operative pain following bone surgery, patients; format: in vivo, human (patients)
# Protocol: The product of Example 1 has been administered to patients suffering from post-operative pain following bone surgery. 10 Patients received the compound at a daily dosage of 150 mg orally. Complete or partial analgesia was felt by 5 patients and slight analgesia by a further 4. When administered intramuscularly at a dosage of 20 to 100 mg per day to 9 patients, the product of Example 1 produced complete analgesia in 5, partial analgesia in 2 and slight analgesia in the remaining 2. […] Eight patients received the product of Example 1 rectally in a dosage of 300 mg per day.
# [9] = Overall result of the pharmacological tests; format: in vivo; settings: according to the results obtained
# Description: The new compounds show these properties in the tests usually used to determine them.
# [10] = 150 mg daily orally, 10 patients
# [11] = 300 mg per day rectally, eight patients
# [12] = 20 to 100 mg per day intramuscularly, 9 patients
# [13] = 50 to 100 mg per day intravenously, slow injection, 13 patients
structure (smiles),measurement,setting,value
"Cc1cccc(Nc2ncccc2C(=O)OCCN2CCOCC2)c1C [Example 1, β-Morpholino ethyl nixylate]",inhibition in vivo at 16 mg/kg,[1]; 16 mg/kg orally,16%
same,inhibition in vivo at 32 mg/kg,[1]; 32 mg/kg orally,20%
same,inhibition in vivo at 64 mg/kg,[1]; 64 mg/kg orally,34%
same,inhibition in vivo at 128 mg/kg,[1]; 128 mg/kg orally,45%
same,inhibition in vivo at 256 mg/kg,[1]; 256 mg/kg orally,61%
same,inhibition in vivo at 4 mg/kg,[2]; 4 mg/kg orally,10%
same,inhibition in vivo at 8 mg/kg,[2]; 8 mg/kg orally,26%
same,inhibition in vivo at 16 mg/kg,[2]; 16 mg/kg orally,26%
same,inhibition in vivo at 32 mg/kg,[2]; 32 mg/kg orally,45%
same,inhibition in vivo at 64 mg/kg,[2]; 64 mg/kg orally,64%
same,inhibition in vivo at 128 mg/kg,[2]; 128 mg/kg orally,83%
same,inhibition in vivo at 256 mg/kg,[2]; 256 mg/kg orally,95%
same,ED50,"Laparotomy test; 10 min, 10 min after treatment",44 mg/kg
same,ED50,"Laparotomy test; 0.5 h, 30 min after treatment",100 mg/kg
same,Percentage protection,"Laparotomy test; 16 mg/kg intraperitoneally, 10 min after treatment, 12 rats",6%
same,Number of sleeping rats,"Laparotomy test; 16 mg/kg intraperitoneally, 10 min after treatment, of 12 rats",0
same,Percentage protection,"Laparotomy test; 16 mg/kg intraperitoneally, 30 min after treatment, 6 rats",0%
same,Number of sleeping rats,"Laparotomy test; 16 mg/kg intraperitoneally, 30 min after treatment, of 6 rats",0
same,Percentage protection,"Laparotomy test; 32 mg/kg intraperitoneally, 10 min after treatment, 12 rats",34%
same,Number of sleeping rats,"Laparotomy test; 32 mg/kg intraperitoneally, 10 min after treatment, of 12 rats",0
same,Percentage protection,"Laparotomy test; 32 mg/kg intraperitoneally, 30 min after treatment, 6 rats",0%
same,Number of sleeping rats,"Laparotomy test; 32 mg/kg intraperitoneally, 30 min after treatment, of 6 rats",0
same,Percentage protection,"Laparotomy test; 64 mg/kg intraperitoneally, 10 min after treatment, 24 rats",62%
same,Number of sleeping rats,"Laparotomy test; 64 mg/kg intraperitoneally, 10 min after treatment, of 24 rats",0
same,Percentage protection,"Laparotomy test; 64 mg/kg intraperitoneally, 30 min after treatment, 24 rats",34%
same,Number of sleeping rats,"Laparotomy test; 64 mg/kg intraperitoneally, 30 min after treatment, of 24 rats",0
same,Percentage protection,"Laparotomy test; 128 mg/kg intraperitoneally, 10 min after treatment, 12 rats",96%
same,Number of sleeping rats,"Laparotomy test; 128 mg/kg intraperitoneally, 10 min after treatment, of 12 rats",0
same,Percentage protection,"Laparotomy test; 128 mg/kg intraperitoneally, 30 min after treatment, 12 rats",62%
same,Number of sleeping rats,"Laparotomy test; 128 mg/kg intraperitoneally, 30 min after treatment, of 12 rats",8
same,Percentage protection,"Laparotomy test; 256 mg/kg intraperitoneally, 30 min after treatment, 6 rats",92%
same,Number of sleeping rats,"Laparotomy test; 256 mg/kg intraperitoneally, 30 min after treatment, of 6 rats",6
same,"Threshold, % (increase)","[3]; 2.5 mg/kg intravenously, 1h30",59%
same,Threshold in volts,"[3]; 2.5 mg/kg intravenously, 1h30, pre-treatment 2.26",3.61 volts
same,"Threshold, % (increase)","[3]; 2.5 mg/kg intravenously, 2h30",47%
same,Threshold in volts,"[3]; 2.5 mg/kg intravenously, 2h30, pre-treatment 2.26",3.33 volts
same,"Threshold, % (increase)","[3]; 2.5 mg/kg intravenously, 15 min",38%
same,Threshold in volts,"[3]; 2.5 mg/kg intravenously, 15 min, pre-treatment 2.26",3.12 volts
same,"Threshold, % (increase)","[3]; 2.5 mg/kg intravenously, 30 min",33%
same,Threshold in volts,"[3]; 2.5 mg/kg intravenously, 30 min, pre-treatment 2.26",3.02 volts
same,"Threshold, % (increase)","[3]; 2.5 mg/kg intravenously, 1 h",41%
same,Threshold in volts,"[3]; 2.5 mg/kg intravenously, 1 h, pre-treatment 2.26",3.20 volts
same,"Threshold, % (increase)","[3]; 2.5 mg/kg intravenously, 2 h",56%
same,Threshold in volts,"[3]; 2.5 mg/kg intravenously, 2 h, pre-treatment 2.26",3.54 volts
same,"Threshold, % (increase)","[3]; 5 mg/kg intravenously, 1h30",59%
same,Threshold in volts,"[3]; 5 mg/kg intravenously, 1h30, pre-treatment 2.54",4.05 volts
same,"Threshold, % (increase)","[3]; 5 mg/kg intravenously, 2h30",15%
same,Threshold in volts,"[3]; 5 mg/kg intravenously, 2h30, pre-treatment 2.54",2.94 volts
same,"Threshold, % (increase)","[3]; 5 mg/kg intravenously, 15 min",95%
same,Threshold in volts,"[3]; 5 mg/kg intravenously, 15 min, pre-treatment 2.54",4.97 volts
same,"Threshold, % (increase)","[3]; 5 mg/kg intravenously, 30 min",88%
same,Threshold in volts,"[3]; 5 mg/kg intravenously, 30 min, pre-treatment 2.54",4.80 volts
same,"Threshold, % (increase)","[3]; 5 mg/kg intravenously, 1 h",58%
same,Threshold in volts,"[3]; 5 mg/kg intravenously, 1 h, pre-treatment 2.54",4.02 volts
same,"Threshold, % (increase)","[3]; 5 mg/kg intravenously, 2 h",30%
same,Threshold in volts,"[3]; 5 mg/kg intravenously, 2 h, pre-treatment 2.54",3.31 volts
same,"Threshold, % (increase)","[3]; 10 mg/kg intravenously, 1h30",52%
same,Threshold in volts,"[3]; 10 mg/kg intravenously, 1h30, pre-treatment 2.65",4.05 volts
same,"Threshold, % (increase)","[3]; 10 mg/kg intravenously, 2h30",24%
same,Threshold in volts,"[3]; 10 mg/kg intravenously, 2h30, pre-treatment 2.65",3.29 volts
same,"Threshold, % (increase)","[3]; 10 mg/kg intravenously, 15 min",74%
same,Threshold in volts,"[3]; 10 mg/kg intravenously, 15 min, pre-treatment 2.65",4.62 volts
same,"Threshold, % (increase)","[3]; 10 mg/kg intravenously, 30 min",118%
same,Threshold in volts,"[3]; 10 mg/kg intravenously, 30 min, pre-treatment 2.65",5.80 volts
same,"Threshold, % (increase)","[3]; 10 mg/kg intravenously, 1 h",69%
same,Threshold in volts,"[3]; 10 mg/kg intravenously, 1 h, pre-treatment 2.65",4.49 volts
same,"Threshold, % (increase)","[3]; 10 mg/kg intravenously, 2 h",40%
same,Threshold in volts,"[3]; 10 mg/kg intravenously, 2 h, pre-treatment 2.65",3.72 volts
same,Sum of the counts (stereotypes),[4]; 8 mg/kg intraperitoneally,14
same,Sum of the counts (stereotypes),[4]; 16 mg/kg intraperitoneally,18
same,Sum of the counts (stereotypes),[4]; 32 mg/kg intraperitoneally,21
same,Sum of the counts (stereotypes),[4]; 64 mg/kg intraperitoneally,33
same,Sum of the counts (stereotypes),[4]; 128 mg/kg intraperitoneally,43
same,potentiation of the action of isoprenaline,[5],potentiates the action of isoprenaline in 3 dogs out of 5
same,LD50 at 168 h,[6]; ip,875 mg/kg
same,LD50 at 168 h,[6]; po,> 2350 mg/kg
same,dose producing cardiac arrest,[7],344 mg/kg
same,complete or partial analgesia,[8]; [10],5 patients
same,slight analgesia,[8]; [10],4 patients
same,moderate analgesia,[8]; [11],one
same,no analgesia,[8]; [11],the last one no analgesia
same,strong analgesia,[8]; [11],Six
same,complete analgesia,[8]; [12],5 patients
same,partial analgesia,[8]; [12],2 patients
same,slight analgesia,[8]; [12],2 patients
same,complete analgesia,[8]; [13],9 patients
same,moderate analgesia,[8]; [13],3 patients
same,no analgesia,[8]; [13],no analgesia in the remaining patient
same,activity relative to the other compounds,[9],the most active compound
